Test results reported in patent US6166084A, “Compositions for the treatment of chronic wounds” (Johnson & Johnson Medical, Ltd., priority 1996, dated 2000).

Columns and labels:
[1] = tested on: matrix metalloproteinases (MMP) from human wound fluid; assay: MMP activity by gelatin SDS-PAGE zymography; assay type: biochemical; settings: 18 hours at 37° C., pH 7.8
Procedure: The effect of NAC concentration on the activity of matrix metalloproteinases (MMP) from human wound fluid was assessed as follows.
The MMP activity was determined by gelatin SDS polyacrylamide gel electrophoresis (zymography) similar to that described by Heussen C. and Dowdle E. B. in Anal. Biochem. 102:196-202 (1980).
The experimental method was as follows:
1. Gel preparation. The following components were mixed thoroughly:
1. 5 ml 30% acrylamide/bis acrylamide (30 g acrylamide (Sigma A8887) plus 0.8 g N-N'-methylene bis-acrylamide (Sigma M7279) in 100 ml deionised water).
2. 6.05 ml deionised water.
3. 3.75 ml 1.5M Tris-HCl buffer.
4. 150 μl 10% sodium dodecyl sulphate (SDS. Fisons S/5200/53).
5. 1 ml warm (60° C.) gelatin (Sigma G9382) solution (7.5 mgml^-1).
6. Immediately prior to casting the gel 50 μl 10% ammonium persulphate (APS, Fisons A/6160/53) and 12.5 μl tetramethylethylenediamine (TEMED, Sigma T9281).
4.5 ml of the above mixture was added to the electrophoresis apparatus (Dual Mini Slab Kit, Atto Corporation), and covered with propanol saturated water. The gel was left gel to polymerise for at least 45 minutes. Then propanol solution was decanted and added to 1 ml of stacking gel solution (3.15 ml deionised water, 0.75 ml 30% acrylamide/bis-acrylamide, […] 1.5M Tris-HCl, 50 μl 10% SDS, 50 μl ammonium persulphate and 10 μl TEMED). Finally, a sample comb (8 lane comb) was inserted and the gel left to polymerise for at least 45 minutes.
2. Sample preparation: A matrix metalloprotease (MMP) sample (10% solution of human acute wound fluid diluted in MMP proteolysis buffer (see below)) was diluted 1:1 with sample buffer (6.3 ml 0.5M Tris-HCl pH 6.8, 2.5 ml glycerol, 0.5 g SDS, 16.2 ml deionised water and bromophenol blue to colour).
3. Sample loading and electrophoresis: 20 μl of the MMP samples were loaded into 8 lanes of the gel. The MMP's were separated for 1 hour at 20 mA/100V per gel until the dye front was almost at the bottom of the gel. The gel apparatus was then dismantled and the gel removed.
4. Proteolysis: Washed gels for 30 minutes with 100 ml 2.5% Triton X-100. The procedure was repeated three times. The gels were cut into slices consisting of two lanes per slice. The gel slices were incubated in 20 ml proteolysis buffer (50 mM Tris-HCl pH 7.8, 50 mM CaCl2, 0.5M NaCl) containing the following treatments (each treatment was adjusted to pH 7.8) for 18 hours at 37° C.: (1) proteolysis buffer alone; (2) N-acetyl cysteine (44 mM); (3) N-acetyl cysteine (4.4 mM); (4) N-acetyl cysteine (0.44 mM).
5. […]
The area of the individual zones of clearance on the gels, which are due to proteinase activity, were accurately measured by the Optilab (RTM) system. […]

[2] = tested on: TNF-α induced CD 54, Intercellular Adhesion Molecule (ICAM-1) expression by Human Umbilical Vein Endothelial Cells (HUVEC); assay: TNF-α induced ICAM-1 expression by HUVEC (ELISA); assay type: cell-based; settings: TNF-α 0.5 ng/ml
Procedure: The effects of NAC on the expression of the TNF-α induced CD 54, Intercellular Adhesion Molecule (ICAM-1) by Human Umbilical Vein Endothelial Cells (HUVEC) was assessed as follows.
DL-Buthionine sulphoximine (BSO) was used to pretreat the cells. BSO is an inhibitor of glutathione synthesis and therefore reduces the glutathione content of the HUVEC rendering them more susceptible to oxidative stress and mimicking the conditions implicated in chronic wounds. NAC was used as a treatment to inhibit the expression of ICAM-1 by interfering with the TNF-α mediated intracellular signalling.
HUVEC were seeded to wells of 96 well plates (5000 cells per well in 100 μl Endothelial Growth Medium (EGM)). The plates were allowed to grow until the cells reached 90% confluence. The medium was decanted from each plate and the following treatments (all volumes were 200 μl, performed in quadruplicate wells) where then applied to the HUVEC. […]
ICAM-1 expression, stimulated by inflammatory mediators such as tumour necrosis factor, can be detected on the surface of cells (endothelial cells, monocytes, T&B cells, keratinocytes, chondrocytes and epithelial cells) using ELISA techniques, as follows: […]
8. Stop the reaction when colour develops by the addition of 1M H2 SO4 (100 μl per well) and read the absorbance at 450 nm using a Dynatech (RTM) plate reader.

CC(=O)N[C@@H](CS)C(=O)O [NAC, N-acetyl-3-mercaptoalanine]
inhibition of MMP activity ([1]; 0.44 mM NAC): approximately 10% | inhibition of MMP activity ([1]; 4.4 mM NAC solution): Approximately 70% | inhibition of MMP activity ([1]; 44 mM NAC solution): substantially complete | inhibition of MMP activity (concentration dependence) ([1]; NAC 0.44, 4.4, 44 mM, FIG. 2): clear concentration-dependent inhibition | inhibition of ICAM-1 expression (concentration dependence) ([2]; BSO (50 μM) pretreated HUVEC, NAC 1.1, 3.3, 10 mM, FIG. 1): concentration-dependent inhibition | inhibition of ICAM-1 expression, all NAC concentrations ([2]; NAC 10, 3.3 and 1.1 mM, P<0.05, Students T-test, BSO pretreated HUVEC): significant inhibition
